These antisense oligonucleotides have a phosphorothioate backbone; sugars and methylation of C are not fully specified.
These sequences were tested against GNA11. Conditions: ASO.
Sequence CTCCACGTCCACCTCCCG has a remaining target (mRNA or protein) (fraction of control) of 0.31.
GCAGGTCCTTCTTGTTGA was tested, and the remaining target (mRNA or protein) (fraction of control) was 0.94.
AAGCCGCGCTTGTCCTCC showed a remaining target (mRNA or protein) (fraction of control) of 0.44.
In the case of CGTCTCCATGGCCCGGAT, the remaining target (mRNA or protein) (fraction of control) is reported as 0.51.
For GTGGCGATGCGGTCAACG, the remaining target (mRNA or protein) (fraction of control) was 0.99.

These sequences were tested against AKT3. Conditions: ASO.
For AACCCAACCTTCTTTCAC, the remaining target (mRNA or protein) (fraction of control) was ≥ 1.
For ATTTGGATCCTTTATCAA, the remaining target (mRNA or protein) (fraction of control) was ≥ 1.
Sequence AAAGGTAACCTCCCACAC has a remaining target (mRNA or protein) (fraction of control) of 0.19.
With CTATGAATGAGCCATCTG the remaining target (mRNA or protein) (fraction of control) was 0.99.
TCATTTCATACATGACAA was tested, and the remaining target (mRNA or protein) (fraction of control) was ≥ 1.
For TTCCATTAATATTAATTC, the remaining target (mRNA or protein) (fraction of control) was ≥ 1.
For TTGGTCGTTCTGTTTTCA, the remaining target (mRNA or protein) (fraction of control) was ≥ 1.
In the case of GGAGTATCTACATGAAAT, the remaining target (mRNA or protein) (fraction of control) is reported as ≥ 1.
TGTTCTCTCTATAACAGT showed a remaining target (mRNA or protein) (fraction of control) of 0.94.
With TGTAGAAAGGTAACCTCC the remaining target (mRNA or protein) (fraction of control) was 0.82.
AAATGTGTTTGGCTTTGG was tested, and the remaining target (mRNA or protein) (fraction of control) was ≥ 1.
For GTAGTCCACTGGAGACAT, the remaining target (mRNA or protein) (fraction of control) was ≥ 1.
Work on CTGCTCGGCCATAGTCAT yielded a remaining target (mRNA or protein) (fraction of control) of 0.19.
CTCTTTATATCCTATGAA was tested, and the remaining target (mRNA or protein) (fraction of control) was ≥ 1.
CTAGGCCCCACCAGTCTA was tested, and the remaining target (mRNA or protein) (fraction of control) was 0.17.
For AGTCTACTGCTCGGCCAT, the remaining target (mRNA or protein) (fraction of control) was 0.21.
GTCTGCTACAGCCTGGAT was tested, and the remaining target (mRNA or protein) (fraction of control) was 0.92.
In the case of AGAGAAGAAACTGTGTCT, the remaining target (mRNA or protein) (fraction of control) is reported as ≥ 1.
For GCCCTGAAAGCAATGATT, the remaining target (mRNA or protein) (fraction of control) was 0.34.
Work on CTCTTCTAAACCCAACCT yielded a remaining target (mRNA or protein) (fraction of control) of 0.79.
CTTTTGCGTCATCTGGTC was tested, and the remaining target (mRNA or protein) (fraction of control) was ≥ 1.
Work on TCTGGTCCTCCACCAAGG yielded a remaining target (mRNA or protein) (fraction of control) of 0.26.
With AAGGTAAATCCACATCTT the remaining target (mRNA or protein) (fraction of control) was 0.66.
In the case of TTTGTGAAGTTGGACTAC, the remaining target (mRNA or protein) (fraction of control) is reported as ≥ 1.
AATGATTTTGCATCTGAA showed a remaining target (mRNA or protein) (fraction of control) of 0.94.
Sequence GTCTCAGATGTTACTTGA has a remaining target (mRNA or protein) (fraction of control) of 0.71.
With GCCTCTGCAGTCTGTCTG the remaining target (mRNA or protein) (fraction of control) was ≥ 1.
ATTATCAATTTGTGAAGT was tested, and the remaining target (mRNA or protein) (fraction of control) was ≥ 1.
GAGACATCTGATTATAAA was tested, and the remaining target (mRNA or protein) (fraction of control) was ≥ 1.
ATATACATCTTGCCAGTT gave a remaining target (mRNA or protein) (fraction of control) of 0.87.
With CCATCTGTCTTCAAAAGG the remaining target (mRNA or protein) (fraction of control) was ≥ 1.
With ACAATTCATTCTCTCCTC the remaining target (mRNA or protein) (fraction of control) was ≥ 1.
For CATCTTGAGGTTTCTCTT, the remaining target (mRNA or protein) (fraction of control) was ≥ 1.
For AACCTCCCACACATCATT, the remaining target (mRNA or protein) (fraction of control) was 0.22.
GATCCTTTATCAAGAGCC showed a remaining target (mRNA or protein) (fraction of control) of 0.4.
For TCTCATGGTCCTGGTTGT, the remaining target (mRNA or protein) (fraction of control) was 0.57.
In the case of TCTATAACAGTAGTCCAC, the remaining target (mRNA or protein) (fraction of control) is reported as ≥ 1.
ATTCTCTCCTCTTCTTGC was tested, and the remaining target (mRNA or protein) (fraction of control) was ≥ 1.
For CTACATGAAATGTTCTCT, the remaining target (mRNA or protein) (fraction of control) was ≥ 1.
TGTCTCATAATTTCTTTT was tested, and the remaining target (mRNA or protein) (fraction of control) was ≥ 1.
In the case of AGCCTGGATAGCTTCTGT, the remaining target (mRNA or protein) (fraction of control) is reported as ≥ 1.
With CTGAAGAGAGTGTTCGAG the remaining target (mRNA or protein) (fraction of control) was ≥ 1.
In the case of ATATATTCTCCCCTCTTC, the remaining target (mRNA or protein) (fraction of control) is reported as ≥ 1.
In the case of GCCAGTTTACTCCAGAGA, the remaining target (mRNA or protein) (fraction of control) is reported as 0.44.
In the case of TCTTCCTCTCCTATATTA, the remaining target (mRNA or protein) (fraction of control) is reported as ≥ 1.
For TGTTCGAGGAAATTTAAT, the remaining target (mRNA or protein) (fraction of control) was ≥ 1.
In the case of TGTCCATTCTTCCCTTTC, the remaining target (mRNA or protein) (fraction of control) is reported as ≥ 1.
With GTCCTGGTTGTAGAAAGG the remaining target (mRNA or protein) (fraction of control) was 0.58.
For CTGTTTTCATTAACTGGC, the remaining target (mRNA or protein) (fraction of control) was ≥ 1.
For TCATACATGACAACCCCT, the remaining target (mRNA or protein) (fraction of control) was 0.13.
CCCACACATCATTTCATA showed a remaining target (mRNA or protein) (fraction of control) of 0.25.
GCGTCATCTGGTCCTCCA was tested, and the remaining target (mRNA or protein) (fraction of control) was 0.26.
With TCTTCTTGCCTCTGCAGT the remaining target (mRNA or protein) (fraction of control) was ≥ 1.
In the case of GATTATAAATGTGTTTGG, the remaining target (mRNA or protein) (fraction of control) is reported as ≥ 1.
With AGCTTCTGTCCATTCTTC the remaining target (mRNA or protein) (fraction of control) was ≥ 1.
With ATTCTTCATCAAAATATC the remaining target (mRNA or protein) (fraction of control) was ≥ 1.

What follows are sequences tested against TRADD. Conditions: ASO.
In the case of AGCGGCACCGAGTGCTGG, the remaining target (mRNA or protein) (fraction of control) is reported as ≥ 1.
For CCGACAGAGAGGGCACCG, the remaining target (mRNA or protein) (fraction of control) was ≥ 1.
In the case of CCACGCTGAGTGTGAGCT, the remaining target (mRNA or protein) (fraction of control) is reported as 0.68.
For GCGGCGGCGGCGGCTTCA, the remaining target (mRNA or protein) (fraction of control) was ≥ 1.
With CCGTGTTATACTTTATTA the remaining target (mRNA or protein) (fraction of control) was ≥ 1.
AGCTCCAGTTGCAGCGGC gave a remaining target (mRNA or protein) (fraction of control) of 0.82.
In the case of TCTATCAAAGTACCTGAG, the remaining target (mRNA or protein) (fraction of control) is reported as ≥ 1.
AATAGCCGCAGAAGGAAC was tested, and the remaining target (mRNA or protein) (fraction of control) was 0.83.
With TGCTCGTACAGTCCCTCG the remaining target (mRNA or protein) (fraction of control) was ≥ 1.
Note: test concentration or dose not given here.
